Data on 24 compounds can be found in patent US10669289B2, “Boronic acid derivatives” (MERCK PATENT GMBH, priority 2014, dated 2020).

One may read the IC50 as the concentration at which inhibition is half-maximal. Higher therefore signals a need for much substance.

Experiment [1] deals with human constitutive proteasome (Beta5) (Homo sapiens (Human), UniProt P28074). The experiment can be described thus: Determination of Beta5 activity (fluorescence intensity assay, Suc-LLVY-AMC). The experiment is classed as biochemical. The method in brief:
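Purified human constitutive proteasome (1.25 nM) preincubated with compounds (30 μM–15 pM) for 20 min (default) or 120 min at 25 °C in 50 mM Tris pH 7.4, 0.03% SDS, 1 mM EDTA, 1% DMSO. Suc-LLVY-AMC substrate at 40 μM, 60 min at 37 °C. Fluorescence read at ex 350/em 450 nm.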

The target in experiment [2] is human immuno proteasome (LMP7) (Homo sapiens (Human), UniProt P28062). The experiment can be described thus: Determination of LMP7 activity (fluorescence intensity assay, Suc-LLVY-AMC). Format: biochemical. The method in brief:
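Fluorogenic Suc-LLVY-AMC cleavage (40 μM substrate, 60 min, 37° C., ex 350/em 450 nm) measured after 0.25 nM human immunoproteasome was exposed to compound at 30 μM–15 pM. Preincubation was 20 min by default or 120 min (long) at 25° C., in Tris pH 7.4 with 0.03% SDS, 1 mM EDTA and 1% DMSO.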

[3] abbreviates: LMP7 versus Beta5, long incubation (120 min).
[4] abbreviates: LMP7 versus Beta5, incubation for 20 minutes.

Regarding `C=CC(=O)N(CC(=O)N[C@@H](Cc1ccsc1)B(O)O)c1ccc(Cl)c(Cl)c1` [Compound No. 97, [(1R)-1-[[2-(3,4-dichloro-N-prop-2-enoyl-anilino)acetyl]amino]-2-(3-thienyl)ethyl]boronic Acid], the IC50 in experiment [1] (long incubation (120 min)) was greater than 5000 nM; in experiment [2] (long incubation (120 min)) it was less than 50 nM. Besides, in experiment [2] (setting [3]), the “Selectivity LMP7 vs Beta5” value is given as “+++++ (Selectivity ≥ 150)”.

On to `C=CC(=O)N(CC)CC(=O)N[C@@H](Cc1cccc2ccccc12)B(O)O` [Compound No. 79, [(1R)-1-[[2-[ethyl(prop-2-enoyl)amino]acetyl]amino]-2-(1-naphthyl)ethyl]boronic Acid], for which the half-inhibitory concentration (IC50) in experiment [1] (long incubation (120 min)) was greater than 5000 nM; in experiment [2] (long incubation (120 min)), 50 to 500 nM. Besides, in experiment [2] (setting [3]), the “Selectivity LMP7 vs Beta5” value is reported as “+++++ (Selectivity ≥ 150)”.

Regarding `C=CC(=O)N(CC)CC(=O)N[C@H](Cc1ccsc1)B(O)O` [Compound No. 76, [(1S)-1-[[2-[ethyl(prop-2-enoyl)amino]acetyl]amino]-2-(3-thienyl)ethyl]boronic Acid], the IC50 was greater than 5000 nM in experiment [1] (long incubation (120 min)) and 500 to 5000 nM in experiment [2] (long incubation (120 min)). For the same compound, the “Selectivity LMP7 vs Beta5” value in experiment [2] (setting [3]) is reported as “+ (Selectivity < 50)”.

Take `C=CC(=O)N(CC)CC(=O)N[C@@H](Cc1ccsc1)B(O)O` [Compound No. 77, [(1R)-1-[[2-[ethyl(prop-2-enoyl)amino]acetyl]amino]-2-(3-thienyl)ethyl]boronic Acid]: the IC50 was greater than 5000 nM in experiment [1] (long incubation (120 min)) and less than 50 nM in experiment [2] (long incubation (120 min)). The “Selectivity LMP7 vs Beta5” value in experiment [2] (setting [3]) was “+++++ (Selectivity ≥ 150)”.

On to `C=CC(=O)N(CC(=O)N[C@@H](Cc1ccsc1)B(O)O)c1cc(Cl)cc(Cl)c1` [Compound No. 95, [(1R)-1-[[2-(3,5-dichloro-N-prop-2-enoyl-anilino)acetyl]amino]-2-(3-thienyl)ethyl]boronic Acid], for which the concentration for half-maximal inhibition (IC50) was greater than 5000 nM in experiment [1] (long incubation (120 min)) and less than 50 nM in experiment [2] (long incubation (120 min)). Also, the “Selectivity LMP7 vs Beta5” value in experiment [2] (setting [3]) is given as “+++++ (Selectivity ≥ 150)”.

In the case of `C=CC(=O)N(CC(=O)N[C@@H](Cc1ccsc1)B(O)O)c1ccc(C(=O)N(C)C)cc1` [Compound No. 103, [(1R)-1-[[2-[4-(dimethylcarbamoyl)-N-prop-2-enoyl-anilino]acetyl]amino]-2-(3-thienyl)ethyl]boronic Acid], the figures for the 50% inhibitory concentration (IC50) in experiment [1] (long incubation (120 min)) and in experiment [2] (long incubation (120 min)) were 500 to 5000 nM and less than 50 nM, respectively. The “Selectivity LMP7 vs Beta5” value in experiment [2] (setting [3]) was “+++++ (Selectivity ≥ 150)”.

Take `C#CC(=O)N(CC)CC(=O)N[C@@H](Cc1ccc(C)cc1C)B(O)O` [Compound No. 12, [(1R)-2-(2,4-dimethylphenyl)-1-[[2-[ethyl(prop-2-ynoyl)amino]acetyl]-amino]ethyl]boronic Acid]: the half-inhibitory concentration (IC50) in experiment [1] (incubation for 20 minutes) is 500 to 5000 nM; in experiment [2] (incubation for 20 minutes) it was less than 50 nM. Also, the “Selectivity LMP7 vs Beta5” value in experiment [2] (setting [4]) was “++++ (100 ≤ Selectivity < 150)”.

On to `C=CC(=O)N(CC)CC(=O)N[C@@H](Cc1ccc(C)c(C)c1)B(O)O` [Compound No. 14, [(1R)-2-(3,4-dimethylphenyl)-1-[[2-[ethyl(prop-2-enoyl)amino]acetyl]-amino]-ethyl]boronic Acid], for which the results for the IC50 in experiment [1] (incubation for 20 minutes) and in experiment [2] (incubation for 20 minutes) were greater than 5000 nM and 50 to 500 nM, respectively. In addition, in experiment [2] (setting [4]), the “Selectivity LMP7 vs Beta5” value is reported as “+++++ (Selectivity ≥ 150)”.

For `C=CC(=O)N(CC(=O)N[C@@H](Cc1ccsc1)B(O)O)c1ccccc1Cl` [Compound No. 89, [(1R)-1-[[2-(2-chloro-N-prop-2-enoyl-anilino)acetyl]amino]-2-(3-thienyl)ethyl]boronic Acid], the half-inhibitory concentration (IC50) in experiment [1] (long incubation (120 min)) was greater than 5000 nM; in experiment [2] (long incubation (120 min)), 50 to 500 nM. The “Selectivity LMP7 vs Beta5” value in experiment [2] (setting [3]) is on record as “+++++ (Selectivity ≥ 150)”.

Take `C=CC(=O)N(CC(=O)N[C@@H](Cc1ccsc1)B(O)O)c1ccccc1` [Compound No. 92, [(1R)-1-[[2-(N-prop-2-enoylanilino)acetyl]amino]-2-(3-thienyl)ethyl]boronic Acid]: the IC50 in experiment [1] (long incubation (120 min)) was greater than 5000 nM; in experiment [2] (long incubation (120 min)), less than 50 nM. The “Selectivity LMP7 vs Beta5” value in experiment [2] (setting [3]) is “+++++ (Selectivity ≥ 150)”.

For `C=CC(=O)N1CCCC[C@@H]1C(=O)N[C@@H](Cc1ccc(C)cc1C)B(O)O` [Compound No. 38, [(1R)-2-(2,4-dimethylphenyl)-1-[[(2R)-1-prop-2-enoylpiperidine-2-carbonyl]amino]ethyl]boronic Acid], the IC50 in experiment [1] (long incubation (120 min)) is greater than 5000 nM; in experiment [2] (long incubation (120 min)) it was 50 to 500 nM. Besides, the “Selectivity LMP7 vs Beta5” value in experiment [2] (setting [3]) is reported as “++++ (100 ≤ Selectivity < 150)”.

Regarding `C=CC(=O)N(C)CC(=O)N[C@@H](Cc1ccc2ccccc2c1)B(O)O` [Compound No. 82, [(1R)-1-[[2-[methyl(prop-2-enoyl)amino]acetyl]amino]-2-(2-naphthyl)ethyl]boronic Acid], the half-maximal inhibitory concentration (IC50) in experiment [1] (long incubation (120 min)) was 500 to 5000 nM; in experiment [2] (long incubation (120 min)) it was less than 50 nM. For the same compound, the “Selectivity LMP7 vs Beta5” value in experiment [2] (setting [3]) is given as “+++++ (Selectivity ≥ 150)”.

For `C=CC(=O)N(CC(=O)N[C@@H](Cc1ccc(C)cc1C)B(O)O)C(C)C` [Compound No. 27, [(1R)-2-(2,4-dimethylphenyl)-1-[[2-[isopropyl(prop-2-enoyl)amino]-acetyl]amino]ethyl]boronic Acid], the IC50 was greater than 5000 nM in experiment [1] (incubation for 20 minutes) and 50 to 500 nM in experiment [2] (incubation for 20 minutes). In addition, in experiment [2] (setting [4]), the “Selectivity LMP7 vs Beta5” value is on record as “+++ (70 ≤ 100)”.

For `C=CC(=O)N(C)[C@H](C)C(=O)N[C@@H](Cc1ccc(C)cc1C)B(O)O` [Compound No. 52, [(1R)-2-(2,4-dimethylphenyl)-1-[[(2R)-2-[methyl(prop-2-enoyl)amino]propanoyl]amino]ethyl]boronic Acid], the IC50 in experiment [1] (long incubation (120 min)) was greater than 5000 nM; in experiment [2] (long incubation (120 min)) it was 500 to 5000 nM. Moreover, the “Selectivity LMP7 vs Beta5” value in experiment [2] (setting [3]) is on record as “++ (50 ≤ Selectivity < 70)”.

Regarding `C=C(C)C(=O)N(CC)CC(=O)N[C@@H](Cc1ccccc1)B(O)O` [Compound No. 28, [(1R)-1-[[2-[ethyl(2-methylprop-2-enoyl)amino]acetyl]amino]-2-phenyl-ethyl]boronic Acid], the IC50 is greater than 5000 nM in experiment [1] (incubation for 20 minutes) and 500 to 5000 nM in experiment [2] (incubation for 20 minutes). For the same compound, the “Selectivity LMP7 vs Beta5” value in experiment [2] (setting [4]) is “+ (Selectivity < 50)”.

`C=CC(=O)N(CC(=O)N[C@@H](Cc1ccc(C)cc1C)B(O)O)CC(F)(F)F` [Compound No. 57, [(1R)-2-(2,4-dimethylphenyl)-1-[[2-[prop-2-enoyl(2,2,2-trifluoroethyl)amino]acetyl]amino]ethyl]boronic Acid]: the 50% inhibitory concentration (IC50) in experiment [1] (long incubation (120 min)) is greater than 5000 nM; in experiment [2] (long incubation (120 min)) it was 50 to 500 nM. Besides, in experiment [2] (setting [3]), the “Selectivity LMP7 vs Beta5” value is reported as “+++++ (Selectivity ≥ 150)”.

Regarding `C=CC(=O)N(C)CC(=O)N[C@@H](Cc1cccc2ccccc12)B(O)O` [Compound No. 80, [(1R)-1-[[2-[methyl(prop-2-enoyl)amino]acetyl]amino]-2-(1-naphthyl)ethyl]boronic Acid], the half-maximal inhibitory concentration (IC50) in experiment [1] (long incubation (120 min)) was greater than 5000 nM; in experiment [2] (long incubation (120 min)), 50 to 500 nM. In experiment [2] (setting [3]), the “Selectivity LMP7 vs Beta5” value is “+++++ (Selectivity ≥ 150)”.

For `C=CC(=O)N(CCC)CC(=O)N[C@@H](Cc1ccc(C)c(C)c1)B(O)O` [Compound No. 5, [(1R)-2-(3,4-dimethylphenyl)-1-[[2-[prop-2-enoyl(propyl)amino]-acetyl]amino]ethyl]boronic Acid], the IC50 in experiment [1] (incubation for 20 minutes) is greater than 5000 nM; in experiment [2] (incubation for 20 minutes), 50 to 500 nM. Also, in experiment [2] (setting [4]), the “Selectivity LMP7 vs Beta5” value is reported as “++++ (100 ≤ Selectivity < 150)”.

Consider `C=CC(=O)N(C)CC(=O)N[C@H](Cc1ccsc1)B(O)O` [Compound No. 73, [(1S)-1-[[2-[methyl(prop-2-enoyl)amino]acetyl]amino]-2-(3-thienyl)ethyl]boronic Acid], for which the IC50 was greater than 5000 nM in experiment [1] (long incubation (120 min)) and 500 to 5000 nM in experiment [2] (long incubation (120 min)). In experiment [2] (setting [3]), the “Selectivity LMP7 vs Beta5” value is “++ (50 ≤ Selectivity < 70)”.

For the compound `C=CC(=O)N(CC(=O)N[C@@H](Cc1ccc(C)cc1C)B(O)O)c1cc(F)ccc1F` [Compound No. 42, [(1R)-1-[[2-(2,5-difluoro-N-prop-2-enoyl-anilino)acetyl]amino]-2-(2,4-dimethylphenyl)ethyl]boronic Acid], the IC50 in experiment [1] (long incubation (120 min)) was greater than 5000 nM; in experiment [2] (long incubation (120 min)), less than 50 nM. For the same compound, the “Selectivity LMP7 vs Beta5” value in experiment [2] (setting [3]) is given as “+++++ (Selectivity ≥ 150)”.

Turning to `C=CC(=O)N(CC(=O)N[C@@H](Cc1ccsc1)B(O)O)C1CC1` [Compound No. 90, [(1R)-1-[[2-[cyclopropyl(prop-2-enoyl)amino]acetyl]amino]-2-(3-thienyl)ethyl]boronic Acid], the results for the IC50 in experiment [1] (long incubation (120 min)) and in experiment [2] (long incubation (120 min)) were greater than 5000 nM and less than 50 nM, respectively. In experiment [2] (setting [3]), the “Selectivity LMP7 vs Beta5” value is on record as “+++++ (Selectivity ≥ 150)”.

Take `C#CC(=O)N(CC(=O)N[C@@H](Cc1ccc(C)cc1C)B(O)O)c1ccccc1` [Compound No. 7, [(1R)-2-(2,4-dimethylphenyl)-1-[[2-(N-prop-2-ynoylanilino)acetyl]-amino]ethyl]boronic Acid]: the IC50 in experiment [1] (incubation for 20 minutes) is 500 to 5000 nM; in experiment [2] (incubation for 20 minutes) it was less than 50 nM. In experiment [2] (setting [4]), the “Selectivity LMP7 vs Beta5” value was “++++ (100 ≤ Selectivity < 150)”.

For `C=CC(=O)N(CC(=O)N[C@@H](Cc1ccc(C)c(C)c1)B(O)O)CC(F)F` [Compound No. 83, [(1R)-1-[[2-[2,2-difluoroethyl(prop-2-enoyl)amino]acetyl]-amino]-2-(3,4-dimethylphenyl)ethyl]boronic Acid], the 50% inhibitory concentration (IC50) in experiment [1] (long incubation (120 min)) was greater than 5000 nM; in experiment [2] (long incubation (120 min)), 50 to 500 nM. In addition, the “Selectivity LMP7 vs Beta5” value in experiment [2] (setting [3]) is “+++++ (Selectivity ≥ 150)”.

Take `C=CC(=O)N(CC(=O)N[C@@H](Cc1ccccc1)B(O)O)C(C)C` [Compound No. 35, [(1R)-1-[[2-[isopropyl(prop-2-enoyl)amino]acetyl]amino]-2-phenyl-ethyl]boronic Acid]: the IC50 in experiment [1] (incubation for 20 minutes) was greater than 5000 nM; in experiment [2] (incubation for 20 minutes), 50 to 500 nM. For the same compound, in experiment [2] (setting [4]), the “Selectivity LMP7 vs Beta5” value is given as “+ (Selectivity < 50)”.
